Measured values taken from ChEMBL document CHEMBL5727469, “Inhibitors of the renal outer medullary potassium channel” (2019).
pIC50: −log10 of the molar value.

target: T1, ATP-sensitive inward rectifier potassium channel 1 (Homo sapiens, UniProt P48048); test: Thallium Flux Assay: 1. Seed HEK-hKir1.1 cells (50 μl at 20,000 cells/well) in 384-well PDL coated Microplates2. Allow cells to adhere overnight in humidified 37° C./10% CO2 incubator3. Completely remove cell growth media from microplate and replace with 25 μl loading buffer4. Incubate Microplate at room temperature, protected form light, for 90 min5. Remove loading buffer and replace with 25 μl 1× Assay Buffer±test compound.6. Incubate microplate at room temperature, protected from light, for 30 min7. At FLIPR-Tetra 384: Add stimulant (Thallium/Potassium) solution to microplate and monitor fluorescence. Excitation=400 nm, Emission=460 & 580 nm. Collect data for ˜10 min.Data Calculation—The fluorescence intensity of wells containing 3 μM of a standard control ROMK inhibitor of the present invention is used to define the ROMK-sensitive component of thallium flux. Fluorescence in the presence of test compounds is normalized to control values to provide % fluorescence change. IC50 values represent the concentration of compound that inhibits 50% of the ROMK thallium flux signal.
T1 sequence (P48048 whole entry): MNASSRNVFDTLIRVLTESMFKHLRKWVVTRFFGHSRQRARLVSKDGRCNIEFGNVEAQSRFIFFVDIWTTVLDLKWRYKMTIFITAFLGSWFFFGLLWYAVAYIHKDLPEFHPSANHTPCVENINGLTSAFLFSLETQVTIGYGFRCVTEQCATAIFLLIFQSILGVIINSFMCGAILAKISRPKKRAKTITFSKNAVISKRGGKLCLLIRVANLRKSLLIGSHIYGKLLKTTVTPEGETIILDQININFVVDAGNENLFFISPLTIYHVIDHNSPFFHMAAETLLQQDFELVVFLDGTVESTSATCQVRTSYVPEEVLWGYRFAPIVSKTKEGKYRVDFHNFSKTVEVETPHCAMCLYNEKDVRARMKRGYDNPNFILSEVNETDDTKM

pIC50 | Structure (SMILES)
6.80 | CC1=C(N2CCOC3(CCN(CC(O)c4ccc(-n5cnnn5)nc4C)CC3)C2)CCC1=O (stereo not given)
6.10 | CC1=C(N2CCOC3(CCN(C[C@H](O)c4ccc5c(c4C)COC5=O)CC3)C2)CCC1=O
6.78 | CC1=C(N2CCOC3(CCN(C[C@H](O)c4ccc(-n5cnnn5)nc4)CC3)C2)CCC1=O
6.55 | CC1=C(N2CCOC3(CCN(CC(O)c4ccc(-n5cnnn5)cc4C)CC3)C2)CCC1=O (stereo not given)
6.07 | CC1=C(N2CCC3(CCN(CC(O)c4ccc(-n5cnnn5)nc4C)CC3)C2=O)CCC1=O (single isomer, unassigned)
